From US12527781B2, “Treatment of neurodegenerative conditions by disruption of Rhes” (The Regents of the University of California, priority 2017, dated 2026)
Entries after “also recorded” stand apart in the source; their conditions may differ.

Columns and labels:
[1] = tested on: lysosomal protein degradation; experiment: proteolysis of long-half-life proteins after 3H-leucine pulse; format: cell-based; settings: 48 h pulse with 3H-leucine; NH4Cl and leupeptin present
Description: To assess this possibility, proteolysis of long-half-life proteins was evaluated after a long pulse (48 h) with ^3H-leucine.

[2] = tested on: rTg4510 mouse; experiment: nest building / nest shredding behaviour in rTg4510 mice; format: in vivo; settings: prolonged oral 80 mg/Kg/day
Text: FIG. 2. FIG. 2 is a boxplot depicting qualitative scores for mice in shredding nest material for control mice and in the tau mouse model rTg4510 expressing human mutant tau P301L, with efficient shredding scored at 3.5 or higher. Control litter-mates where able to shred their nest material efficiently while rTg4510 mice lost their ability in an age-related matter (score less than 1).
As transgenic mice age, they display progressive worsening that begins with impaired marble burial and nest shredding and by 30 weeks progresses to hyperexcitability, restlessness in response to human approach and obsessive circling. […] Nest building was assessed at 20 weeks. […] At five weeks, littermate controls and transgenic mice produced nests with similar scores.

[3] = tested on: NIH3T3 mouse fibroblasts; experiment: macroautophagy flux with tandem reporter mCherry-GFP-LC3B; format: cell-based
[4] = tested on: rTg4510 mouse; experiment: tau pathology in rTg4510 mice (MC1 immunoreactivity, coronal brain area, Iba1 microglia); format: in vivo
Text: These mice develop tau tangles in the cerebral cortex by 4 months of age and in the hippocampus by 5.5 months. By 5.5 months, the mice also lose about 60% of their hippocampal CA1 neurons. Spatial memory deficits become apparent by 2.5 to 4 months of age; however electrophysiological properties of cortical neurons are detected before the accumulation of tau pathology. […] MC1 immunoreactivity, corresponding to neurofibrillary tangles throughout hippocampus, amygdala, entorhinal cortex and cerebrocortex, was first detected at ˜16 weeks and progressed by 20 weeks to a mean of 92.99±13.626 MC1^+ cells/mm^2 in the cerebral cortex, and 67.57±13.113 cells/mm^2 in the hippocampus.
Lonafarnib treatment was initiated when the animals were ten weeks old. The drug was resuspended in 20% HBCD and gavage fed, five days on and five days off at 80 mg/Kg/day. The drug was remarkably effective in reducing MC1 immunoreactivity.

[5] = cited from earlier work
[6] = tested on: Mouse cultured neurons overexpressing Rhes; experiment: accumulation of phosphorylated tau in cultured neurons overexpressing Rhes; format: cell-based; settings: increasing concentrations, assayed between 25 to 250 nM
Text: FIG. 1. Mouse cultured neurons overexpressing Rhes display an aberrant accumulation of phosphorylated tau. […] The two lines represent results for separate culture replications.
Mouse cultured neurons overexpressing Rhes display an aberrant accumulation of phosphorylated tau.

For `NC(=O)N1CCC(CC(=O)N2CCC([C@H]3c4ncc(Br)cc4CCc4cc(Cl)cc(Br)c43)CC2)CC1` [Lonafarnib], the “proteolysis effect in the presence of NH4Cl and leupeptin” value [1] was “abolished”, the “nest shredding / nest building” value ([2]; absence of Doxycicline (L80), chronic intermittent from ten weeks, assessed at 20 weeks, 80 mg/kg/day) was “prevented the nest shredding deficit; also recorded: rescued nest building” and the nest shredding ([2]; presence of Doxycicline (L80D)) was “prevented the nest shredding deficit”. The number of autophagosomes ([3]; at lower concentrations) was “remained unchanged”, the macroautophagy flux ([3]; basal macroautophagy, NIH3T3 mCherry-GFP-LC3B) was “dose-dependent increase” and the “macroautophagy flux in induced cells” value ([3]; macroautophagy induced by paraquat or thapsigargin) was “did not further increase macroautophagy flux”. The “MC1+ cells/mm^2 in hippocampus” value ([4]; 80 mg/Kg/day gavage, five days on and five days off from ten weeks, evaluated at 20 weeks, p=6.4×10^−3 vs vehicle) was 13.38±2.615 MC1+ cells/mm^2, the “MC1+ cells/mm^2 in cortex” value ([4]; 80 mg/Kg/day gavage, five days on and five days off from ten weeks, evaluated at 20 weeks, p=7.2×10^−3 vs vehicle) was 44.27±4.064 MC1+ cells/mm^2 and the “hippocampal microgliosis (Iba1)” value ([4]; 20-week old transgenic mice vs age matched untreated transgenic mice) was “significantly reduced”. For the same molecule, the coronal brain area ([4]; chronic treatment, 20 weeks, vs vehicle and untreated age-matched transgenic mice) was “significantly larger”, the “effect as acute intervention on tau pathology” value ([4]; gavage daily for 2 weeks, 80 mg/Kg/day, 20 week-old rTg4510 mice, after tau pathology was fulminant) was “ineffective” and the efficacy and tolerability ([5]; dose of 100-150 mg/m2 body surface area) was “effective and well tolerated”. For the same molecule, the “side effects in humans” value ([5]; humans) was “few side effects in humans” and the “accumulation of phosphorylated tau” value [6] was “reduced”.
